Assays:
Assay type in all cases: in vivo, Syrian hamsters
[1] = system: hamsters fed with high cholesterol diet; test: Animal experiments on lowering blood lipids: total cholesterol and triglyceride in the feces; conditions: Positive control (P), 124 mg/kg oral gavage, 8 weeks
Description: Male Syrian hamsters aged 6-7 weeks were tested for evaluating the effects of lowering blood lipid profile. Animals were divided into 6 groups, 8 hamsters in each group with a total of 48 hamsters. The experiment was conducted for 8 weeks, and the dosing method was oral gavage, and the animals of experimental groups were fed with the astaxanthin compound composition prepared according to the present invention. The dosage used was calculated according to the dosage for adult human. […] Based on this dosage, the 1×, 2× and 3× dosages were respectively defined for the following testing. The animals were fed with 1× (the converted dosage for hamster is 30.83 mg/kg), 2× (the converted dosage for hamster is 61.67 mg/kg) and 3× (the converted dosage for hamster is 92.50 mg/kg) dosages. At the same time, the clinically used anti-hyperlipidemic drug, Probucol, was used as comparison for evaluating the anti-hyperlipidemic effect. [table] Biostatistical analysis method: the results of the experiment were statistically tested based on one-way ANOVA by using SPSS 10.1 system. Then, the difference among the groups was tested by Duncan's Multiple Range Test. When the p value is smaller than 0.05 (P<0.05), it indicates statistically significant difference. […]

[2] = system: hamsters fed with high cholesterol diet; test: Animal experiments on lowering blood lipids: serum lipid profile
Description: Male Syrian hamsters aged 6-7 weeks were tested for evaluating the effects of lowering blood lipid profile. Animals were divided into 6 groups, 8 hamsters in each group with a total of 48 hamsters. The experiment was conducted for 8 weeks, and the dosing method was oral gavage, and the animals of experimental groups were fed with the astaxanthin compound composition prepared according to the present invention. The dosage used was calculated according to the dosage for adult human. […] Based on this dosage, the 1×, 2× and 3× dosages were respectively defined for the following testing. The animals were fed with 1× (the converted dosage for hamster is 30.83 mg/kg), 2× (the converted dosage for hamster is 61.67 mg/kg) and 3× (the converted dosage for hamster is 92.50 mg/kg) dosages. At the same time, the clinically used anti-hyperlipidemic drug, Probucol, was used as comparison for evaluating the anti-hyperlipidemic effect. [table] Biostatistical analysis method: the results of the experiment were statistically tested based on one-way ANOVA by using SPSS 10.1 system. Then, the difference among the groups was tested by Duncan's Multiple Range Test. When the p value is smaller than 0.05 (P<0.05), it indicates statistically significant difference. The experimental animals were sacrificed to have blood drawn and the results of total cholesterol (TC) and triglyceride (TG) were shown in Table 2. […] Please continue to refer to Table 2 for the effects of astaxanthin compound composition on high-density lipoprotein cholesterol (HDL-C), low-density lipoprotein cholesterol (LDL-C) in hamsters fed with high cholesterol diet.

[3] = system: hamsters fed with high cholesterol diet; test: Animal experiments on lowering blood lipids: total cholesterol and triglyceride in the liver
Description: Male Syrian hamsters aged 6-7 weeks were tested for evaluating the effects of lowering blood lipid profile. Animals were divided into 6 groups, 8 hamsters in each group with a total of 48 hamsters. The experiment was conducted for 8 weeks, and the dosing method was oral gavage, and the animals of experimental groups were fed with the astaxanthin compound composition prepared according to the present invention. The dosage used was calculated according to the dosage for adult human. […] Based on this dosage, the 1×, 2× and 3× dosages were respectively defined for the following testing. The animals were fed with 1× (the converted dosage for hamster is 30.83 mg/kg), 2× (the converted dosage for hamster is 61.67 mg/kg) and 3× (the converted dosage for hamster is 92.50 mg/kg) dosages. At the same time, the clinically used anti-hyperlipidemic drug, Probucol, was used as comparison for evaluating the anti-hyperlipidemic effect. [table] Biostatistical analysis method: the results of the experiment were statistically tested based on one-way ANOVA by using SPSS 10.1 system. Then, the difference among the groups was tested by Duncan's Multiple Range Test. When the p value is smaller than 0.05 (P<0.05), it indicates statistically significant difference. When the concentration of total cholesterol and triglyceride in the liver is too high, the risk of developing fatty liver may increase. According to the present Experimental Example, the concentration changes in total cholesterol and triglyceride in the liver and feces of the tested animals are shown in Table 3.

[4] = Positive control (P), 124 mg/kg oral gavage, 8 weeks, high cholesterol diet

CC(C)(Sc1cc(C(C)(C)C)c(O)c(C(C)(C)C)c1)Sc1cc(C(C)(C)C)c(O)c(C(C)(C)C)c1 [Probucol]
feces TC [1]: 6.7 ± 0.9 mg/g | feces TG [1]: 15.8 ± 2.8 mg/g | HDL-C in serum [2, 4]: 83 ± 11 mg/dL | HDL-C/TC in serum [2, 4]: 0.707 ± 0.066 | LDL-C in serum [2, 4]: 31.8 ± 3.9 mg/dL | LDL-C/HDL-C in serum [2, 4]: 0.392 ± 0.110 | LDL-C/TC in serum [2, 4]: 0.203 ± 0.032 | TC (total cholesterol) in serum [2, 4]: 157 ± 11 mg/dL | TG (triglyceride) in serum [2, 4]: 152 ± 14 mg/dL | total cholesterol in blood compared with vehicle control group ([2]; positive control group, 124 mg/kg, p<0.05): significantly lower | liver TC [3, 4]: 3.80 ± 0.26 mg/g | liver TG [3, 4]: 13.7 ± 1.5 mg/g | total cholesterol concentration in the liver compared with vehicle control group ([3]; positive control (P) group, 124 mg/kg, p<0.05): significantly lower

Source: patent publication US10973779B2, “Astaxanthin compound composition and the method thereof” (Bioptik Technology, Inc., priority 2019, dated 2021)
